Measurements: patent US8071589B2, “Dihydrobenzoindazoles” (N. V. Organon, priority 2009, dated 2011)

What follows are compounds tested against T1, human FSH receptor (Homo sapiens, UniProt P23945) (assay: Agonistic activity at the human FSH receptor expressed in CHO cells (CRE-luciferase reporter)).
T1 sequence (P23945 18-695): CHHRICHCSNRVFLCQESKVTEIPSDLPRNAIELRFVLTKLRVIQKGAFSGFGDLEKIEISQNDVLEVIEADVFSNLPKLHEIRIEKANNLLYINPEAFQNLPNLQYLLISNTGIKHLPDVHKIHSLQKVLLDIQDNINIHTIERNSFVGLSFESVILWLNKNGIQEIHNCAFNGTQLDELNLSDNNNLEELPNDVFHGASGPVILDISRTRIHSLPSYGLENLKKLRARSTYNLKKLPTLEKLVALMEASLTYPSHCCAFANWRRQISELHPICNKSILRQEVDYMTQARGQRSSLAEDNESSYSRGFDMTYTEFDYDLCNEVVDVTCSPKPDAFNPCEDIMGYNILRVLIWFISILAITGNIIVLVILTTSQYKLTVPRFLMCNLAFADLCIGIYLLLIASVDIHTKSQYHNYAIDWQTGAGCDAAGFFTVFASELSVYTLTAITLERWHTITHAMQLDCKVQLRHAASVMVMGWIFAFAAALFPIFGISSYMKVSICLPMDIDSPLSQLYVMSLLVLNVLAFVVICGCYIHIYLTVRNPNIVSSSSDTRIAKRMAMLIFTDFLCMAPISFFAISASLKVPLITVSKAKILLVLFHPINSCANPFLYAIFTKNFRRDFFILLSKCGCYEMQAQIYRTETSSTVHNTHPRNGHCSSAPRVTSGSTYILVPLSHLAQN
From the text: The term EC50 means the concentration of the test compound that elicits half-maximal (50%) stimulation compared to the compound's maximally attainable effect. pEC50 is the negative log of EC50. The values can be determined e.g. in a cell line transfected with a FSH receptor gene and cotransfected with a cAMP responsive element/promoter directing the expression of a reporter gene. For the determination a software program such as MathIQ (version 2.0, ID Business Solutions Limited) can be used.
Agonistic activity of the compounds at the human FSH receptor was determined in Chinese Hamster Ovary (CHO) cells stably transfected with the human FSH receptor and cotransfected with a cAMP responsive element (CRE)/promotor directing the expression of a firefly luciferase reporter gene. […] Cells (7,500 cells/well of a 384 well plate) were incubated in Dulbecco' minimal essential F12 modified medium (Invitrogen), supplemented with 1 μg/ml bovine insulin, 5 μg/ml human apo-transferrin, 80 U/ml penicillin G and 80 μg/ml streptomycin with the test compounds (concentration between 0.0316 nM and 10.0 μM) in duplicate in a humidified atmosphere (95%) at 5-7% CO2 and 37° C. The final concentration of DMSO was 1%. After 4 hours of incubation, plates were allowed to adjust to room temperature for 1 hour. Then, Luclite (PerkinElmer) solution was added to the wells and cells were allowed to lyse for at least 1 hour at room temperature. Subsequently, luciferase activity was measured in a luminescence counter. The signal is expressed as counts per second (cps). The EC50 (concentration of the test compound that elicits half-maximal (50%) luciferase stimulation compared to the compound's maximally attainable effect) and efficacy values (maximal effect of the test compound as percentage of the maximal effect of recombinant human FSH) of the compounds were determined using the software program MathIQ (version 2.0, ID Business Solutions Limited).

EC50, < 100 nM:
COc1cc2c(cc1OC(C)C)-c1c(c(C(=O)N3CCCN(C(=O)C4CCC4)CC3)nn1-c1ccc(F)cc1)CC2 [Example 3d, (4-(cyclobutanecarbonyl)-1,4-diazepan-1-yl)(1-(4-fluorophenyl)-8-isopropoxy-7-methoxy-4,5-dihydro-1H-benzo[g]indazol-3-yl)methanone]
COc1cc2c(cc1OC(C)C)-c1c(c(C(=O)N3CCCN(C(=O)C4CCC4)CC3)nn1-c1ccsc1)CC2 [Example 2g, (4-(cyclobutanecarbonyl)-1,4-diazepan-1-yl)(8-isopropoxy-7-methoxy-1-(thiophen-3-yl)-4,5-dihydro-1H-benzo[g]indazol-3-yl)methanone]
COc1cc2c(cc1OC(C)C)-c1c(c(C(=O)N3CCCN(C(C)=O)CC3)nn1-c1ccc(F)cc1)CC2 [Example 3c, 1-(4-(1-(4-fluorophenyl)-8-isopropoxy-7-methoxy-4,5-dihydro-1H-benzo[g]indazole-3-carbonyl)-1,4-diazepan-1-yl)ethanone]
COc1cc2c(cc1-c1cccnc1)-c1c(c(C(=O)N(C)C(C)(C)C)nn1-c1ccccc1Cl)CC2 [Example 11gb, N-tert-butyl-1-(2-chlorophenyl)-7-methoxy-N-methyl-8-(pyridin-3-yl)-4,5-dihydro-1H-benzo[g]indazole-3-carboxamide]
COc1cc2c(cc1OC(C)C)-c1c(c(C(=O)N(C)C(C)(C)C)nn1-c1ccsc1)CC2 [Example 2h, N-tert-butyl-8-isopropoxy-7-methoxy-N-methyl-1-(thiophen-3-yl)-4,5-dihydro-1H-benzo[g]indazole-3-carboxamide]
COc1cc2c(cc1OC(C)C)-c1c(c(C(=O)N(C)C(C)(C)C)nn1-c1cccs1)CC2 [Example 5b, N-tert-butyl-8-isopropoxy-7-methoxy-N-methyl-1-(thiophen-2-yl)-4,5-dihydro-1H-benzo[g]indazole-3-carboxamide]
